From ChEMBL document CHEMBL1201862, “PubChem BioAssay data set” (2004)
Activity calls are given as the source filed them.

Tests used:
[1] = target: T1, NAD-dependent protein deacylase sirtuin-5, mitochondrial (Homo sapiens, UniProt Q9NXA8); assay: sirtuin-5 deacylation blockers, concentration series – biochemical, fluorescence imaging, cherry-pick, set 5, dose response (AID 720591);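 note: desuccinylation of succinyl peptide AMC substrate read as fluorescence after trypsin release; potency of inhibitors that lower fluorescence and may act on trypsin instead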
[2] = target: RNA-editing ligase 1, mitochondrial (Trypanosoma brucei brucei, UniProt P86926); assay: inhibition of trypanosome RNA editing ligase – biochemical, fluorescence, Trypanosoma brucei, dose response (AID 1117295); format: functional
[3] = target: T1, NAD-dependent protein deacylase sirtuin-5, mitochondrial; assay: blockers of sirtuin-5 peptide desuccinylation – biochemical, fluorescence imaging, cherry-pick, set 6, dose response (AID 720597)
[4] = cytotoxicity in MITF-independent A375 cells – cell-based, CellTiter-Glo luminescence, dry powder, set 4, counter-screen for MITF inhibitor project, dose response (AID 624364); format: functional; details: A-375;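 note: A375 melanoma cells are MITF independent so this is a counter screen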
[5] = viability loss in MITF-independent A375 cells – cell-based, CellTiter-Glo luminescence, dry powder, set 2, counter-screen for MITF inhibitor project, dose response (AID 624489); format: functional; details: A-375;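 note: actives are compounds lowering A375 viability meaning general cytotoxicity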
[6] = luciferase reporter signal suppression in cells – H4 neuroglioma cells, luminescence, dose response (AID 1990); format: functional, cell-based
[7] = luciferase reporter signal reduction – luminescence, H4-C neuroglioblastoma cells, dose response (AID 2458); format: functional, cell-based;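 note: H4 neuroglioblastoma cells stably carrying a luciferase reporter gene fusion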
BJ [8] = assay: BJ-TERT fibroblast viability loss – cell-based, RAS-independent, luminescence, dose response (AID 1933); format: functional; details: Homo sapiens
cells [9] = format: functional, cell-based
[10] = alpha-synuclein stem-loop luciferase translation blockers – H4 neuroglioma cells, luminescence, confirmation (AID 1988); format: functional, cell-based
BJ [11] = assay: cells; format: functional, cell-based; details: Homo sapiens
BJ [12] = assay: BJ-TERT-LT-ST fibroblast viability loss – cell-based, RAS-independent, luminescence, dose response (AID 1935); format: functional; details: Homo sapiens;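 note: BJ fibroblasts immortalized with TERT plus LT and ST oncogenes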
[13] = DRD fibroblast viability loss – cell-based, non-viral oncogenic, luminescence, dose response (AID 1934); format: functional; details: Homo sapiens
[14] = alpha-synuclein stem-loop translation blockers – luminescence, H4 neuroglioblastoma cells, dose confirmation, confirmation (AID 2454); format: functional, cell-based;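 note: H4 neuroglioblastoma cells carrying an alpha-synuclein 5'UTR luciferase reporter; potency for inhibition of the luciferase signal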
[15] = toxicity toward HEK293 cells – cell-based, dry powder samples, cytotoxicity control, dose response (AID 720567); format: functional
[16] = target: T2, RNA-binding protein pos-1 (Caenorhabditis elegans, UniProt G5EF15); assay: disruptors of C. elegans POS-1 RNA interaction – biochemical, fluorescence polarization, dose response (AID 1964);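 note: purified POS-1 fused to maltose binding protein made in E. coli; potency of compounds blocking POS-1 binding to fluorescent RNA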
T2 sequence (G5EF15 whole entry): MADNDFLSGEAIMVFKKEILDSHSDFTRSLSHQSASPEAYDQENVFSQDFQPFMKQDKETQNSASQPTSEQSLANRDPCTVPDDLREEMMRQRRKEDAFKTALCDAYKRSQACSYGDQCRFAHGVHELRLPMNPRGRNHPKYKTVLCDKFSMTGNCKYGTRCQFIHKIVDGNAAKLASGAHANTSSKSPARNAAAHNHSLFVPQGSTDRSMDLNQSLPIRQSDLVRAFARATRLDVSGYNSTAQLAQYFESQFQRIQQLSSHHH

[17] = target: T3, Zinc finger protein mex-5 (Caenorhabditis elegans, UniProt Q9XUB2); assay: potency of MEX-5 RNA-binding blockers – biochemical, C. elegans, fluorescence polarization, dose response (AID 1960)
T3 sequence (Q9XUB2 whole entry): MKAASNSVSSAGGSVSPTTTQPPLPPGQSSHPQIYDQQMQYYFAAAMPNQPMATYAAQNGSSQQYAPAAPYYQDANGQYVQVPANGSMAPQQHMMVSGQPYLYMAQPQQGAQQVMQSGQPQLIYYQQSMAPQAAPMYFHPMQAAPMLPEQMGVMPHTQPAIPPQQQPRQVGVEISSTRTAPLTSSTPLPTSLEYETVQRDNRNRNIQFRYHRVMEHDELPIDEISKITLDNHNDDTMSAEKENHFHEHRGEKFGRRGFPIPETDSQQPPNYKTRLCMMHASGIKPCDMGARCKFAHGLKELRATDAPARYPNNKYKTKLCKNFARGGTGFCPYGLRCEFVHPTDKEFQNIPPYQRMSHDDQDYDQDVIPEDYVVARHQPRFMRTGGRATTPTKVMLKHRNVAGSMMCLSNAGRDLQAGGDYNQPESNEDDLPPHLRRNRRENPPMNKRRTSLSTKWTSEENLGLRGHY

Transthyretin = Transthyretin (Homo sapiens, UniProt P02766); assay: Luminescence-based cell-based high throughput dose response assay to identify activators of Transthyretin (TTR) transcription.; format: functional
[18] = A549 cell cytotoxicity, dose response, cytotoxicity control, plate reader, cherry-pick, antagonist series (AID 743412); format: functional, cell-based
[19] = toxicity toward HepG2 liver cells – cell-based, plate reader, cherry-pick, antagonist series, cytotoxicity control, dose response (AID 743416); format: functional
[20] = blockers of bursicon-stimulated LGR2 cAMP reporter – cell-based, HEK293, CRE-luciferase reporter, cherry pick, set 2, dose response (AID 743343); format: functional;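 note: transfected cells were stimulated with diluted bursicon conditioned medium after compound addition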
[21] = blockade of melanocortin 4 receptor signaling – cell-based, plate reader, cherry pick, counter-screen for LGR2 antagonist project, dose response (AID 743444); format: functional;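 note: transfected HEK 293 cells stimulated with alpha-MSH peptide; potency of inhibitors of the alpha-MSH evoked signal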
[22] = viability loss in HEK293 cells – cell-based, plate reader, cherry-picked samples, cytotoxicity control, dose response (AID 743446); format: functional
[23] = growth inhibition of yeast DHODH-expressing 3D7 parasites – SYBR Green, dry powder samples, dose response (AID 1159570); format: functional, cell-based;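 note: parasite growth measured after 72 hours of compound exposure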
[24] = toxicity to human HepG2 hepatoma cells – cell-based, plate reader, dry powder samples, cytotoxicity control, dose response (AID 1159569); format: functional;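 note: inhibitor potency with signal falling toward the positive control level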
[25] = P. falciparum Dd2 growth inhibitors, dose response, SYBR Green, cherry-picked samples (AID 1159567); format: functional, cell-based
[26] = Dd2 malaria parasite growth inhibition potency – SYBR Green, dry powder samples, dose response (AID 1159566); format: functional, cell-based;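 note: potency for growth inhibition with lower SYBR green DNA signal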
[27] = growth inhibition of PfATP4-mutant resistant parasites – NITD609-resistant line, SYBR Green, dry powder, dose response (AID 1159571); format: functional, cell-based;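 note: parasites synchronized at ring stage by sorbitol before testing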
[28] = target: T4, Oxysterols receptor LXR-beta (Homo sapiens, UniProt P55055); format: functional, cell-based;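 note: Cell-based luminescence dose-response assay of agonist activity at LXR, run as a confirmatory counterscreen to a daf-12 agonist screen; HEK293 cells with Gal4-LXR fusion and GAL4-driven luciferase reporter; agonist potency from rising luciferase signal of a Gal4-LXR reporter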
T4 sequence (P55055 whole entry): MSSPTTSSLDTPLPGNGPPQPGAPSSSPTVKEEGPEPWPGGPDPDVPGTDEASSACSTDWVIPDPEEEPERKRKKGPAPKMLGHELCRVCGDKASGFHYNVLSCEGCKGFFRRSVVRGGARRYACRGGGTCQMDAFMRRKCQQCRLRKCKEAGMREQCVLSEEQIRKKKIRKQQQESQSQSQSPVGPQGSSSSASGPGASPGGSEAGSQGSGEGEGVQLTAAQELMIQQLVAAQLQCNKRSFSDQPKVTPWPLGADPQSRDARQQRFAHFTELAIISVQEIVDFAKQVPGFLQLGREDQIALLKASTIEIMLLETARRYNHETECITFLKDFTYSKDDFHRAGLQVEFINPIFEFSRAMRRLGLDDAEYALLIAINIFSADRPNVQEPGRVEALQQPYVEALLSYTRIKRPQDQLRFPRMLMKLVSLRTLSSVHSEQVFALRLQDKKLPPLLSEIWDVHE

cells [29] = assay: cells
Paired box protein Pax-8 = Paired box protein Pax-8 (Homo sapiens, UniProt Q06710); assay: PAX8 transcriptional activity inhibition in RMG-I – RMG-I cells, luciferase, cherry-pick, dose response (AID 687027); format: functional, cell-based;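 note: luciferase reporter driven by Pax8 target thyroperoxidase promoter measured by SteadyGlo luminescence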
[30] = toxicity toward immortalized ovarian surface epithelium – cell-based, plate reader, dry powder samples, cytotoxicity control for PAX8 inhibitor project, dose response (AID 743045); format: functional
[31] = A2780 cell killing – plate reader, dry powder samples, cytotoxicity control, dose response (AID 743046); format: functional, cell-based
[32] = OVCAR-3 cell viability loss – plate reader, dry powder samples, PAX8 inhibitor project, dose response (AID 743044); format: functional, cell-based
[33] = IGROV1 cell killing – plate reader, dry powder samples, PAX8 inhibitor project, dose response (AID 743043); format: functional, cell-based; details: IGROV-1
[34] = OVCAR8 cell viability loss – plate reader, dry powder samples, PAX8 project, dose response (AID 743197); format: functional, cell-based; details: OVCAR-8
[35] = toxicity to human hepatoma HepG2 cells – cell-based, cherry-picked samples, cytotoxicity control, dose response (AID 1159577); format: functional
[36] = Luminescence Cell-Based Dose Response HTS to Identify Inhibitors of 5'UTR Stem-Loop Driven Prion Protein mRNA Translation in H4 Neuroglioblastoma Cells. [Related pubchem assays: 1827 (Project Summary), 1813 (Primary HTS)]; format: functional
[37] = potency of ADAM10 substrate cleavage blockers – biochemical, QFRET, dose response (AID 743254);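 note: ADAM10 enzyme with the DM2 quenched FRET peptide as substrate; EDANS fluorescence gain as the protease cuts the substrate; inhibitor potency against ADAM10 proteolytic activity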
[38] = target: T5, Disintegrin and metalloproteinase domain-containing protein 17 (Homo sapiens, UniProt P78536); assay: exosite inhibitors of ADAM17, dose response, biochemical (AID 743260)
[39] = target: T5, Disintegrin and metalloproteinase domain-containing protein 17; assay: inhibition of ADAM17 substrate cleavage – biochemical, quenched FRET substrate, counter-screen for ADAM10 exosite inhibitor project, dose response (AID 743253)

T1 sequence (Q9NXA8 whole entry): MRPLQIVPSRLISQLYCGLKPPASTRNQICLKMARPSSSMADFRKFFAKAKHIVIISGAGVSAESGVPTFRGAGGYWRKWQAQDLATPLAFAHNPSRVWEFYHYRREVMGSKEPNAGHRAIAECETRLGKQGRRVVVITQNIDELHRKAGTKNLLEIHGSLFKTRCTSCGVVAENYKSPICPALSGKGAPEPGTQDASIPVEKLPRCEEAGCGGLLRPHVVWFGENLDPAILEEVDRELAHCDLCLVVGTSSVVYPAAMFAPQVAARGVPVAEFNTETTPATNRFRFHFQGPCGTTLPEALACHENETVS
RNA-editing ligase 1, mitochondrial, sequence (P86926 whole entry): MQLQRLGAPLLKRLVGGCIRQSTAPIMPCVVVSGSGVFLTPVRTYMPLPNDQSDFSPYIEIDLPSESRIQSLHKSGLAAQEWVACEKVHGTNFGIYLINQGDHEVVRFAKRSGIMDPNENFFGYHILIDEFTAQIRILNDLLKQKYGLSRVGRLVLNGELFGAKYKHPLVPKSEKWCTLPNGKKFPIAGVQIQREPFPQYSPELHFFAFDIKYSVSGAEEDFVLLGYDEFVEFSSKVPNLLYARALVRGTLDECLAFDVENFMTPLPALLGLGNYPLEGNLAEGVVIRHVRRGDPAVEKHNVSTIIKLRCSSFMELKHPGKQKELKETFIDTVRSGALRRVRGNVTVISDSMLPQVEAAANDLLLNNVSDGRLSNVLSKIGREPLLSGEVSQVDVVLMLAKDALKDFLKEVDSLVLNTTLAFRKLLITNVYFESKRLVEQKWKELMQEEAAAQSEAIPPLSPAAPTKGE
T5 sequence (P78536 whole entry, the tested form may be a part): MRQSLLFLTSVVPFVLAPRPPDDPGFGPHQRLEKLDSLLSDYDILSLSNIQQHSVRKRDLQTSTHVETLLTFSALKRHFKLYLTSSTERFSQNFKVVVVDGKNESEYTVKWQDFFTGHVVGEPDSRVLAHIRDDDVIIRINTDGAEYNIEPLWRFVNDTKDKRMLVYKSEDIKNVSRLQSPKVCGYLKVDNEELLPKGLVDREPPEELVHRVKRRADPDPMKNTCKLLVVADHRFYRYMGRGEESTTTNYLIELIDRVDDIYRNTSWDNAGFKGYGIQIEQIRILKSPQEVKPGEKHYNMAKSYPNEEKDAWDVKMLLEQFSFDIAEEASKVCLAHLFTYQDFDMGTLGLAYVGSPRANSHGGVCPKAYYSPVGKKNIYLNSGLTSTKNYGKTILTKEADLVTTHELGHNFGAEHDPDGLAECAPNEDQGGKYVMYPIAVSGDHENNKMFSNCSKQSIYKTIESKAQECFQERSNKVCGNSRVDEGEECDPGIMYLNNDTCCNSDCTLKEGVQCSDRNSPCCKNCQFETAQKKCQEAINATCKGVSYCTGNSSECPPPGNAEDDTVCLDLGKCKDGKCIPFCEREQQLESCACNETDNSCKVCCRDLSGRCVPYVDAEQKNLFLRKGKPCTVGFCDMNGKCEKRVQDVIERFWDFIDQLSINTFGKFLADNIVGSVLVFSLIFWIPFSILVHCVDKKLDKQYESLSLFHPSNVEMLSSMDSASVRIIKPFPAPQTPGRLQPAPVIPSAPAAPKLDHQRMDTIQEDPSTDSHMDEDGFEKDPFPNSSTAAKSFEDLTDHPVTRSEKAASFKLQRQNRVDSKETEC
Paired box protein Pax-8, sequence (Q06710 whole entry): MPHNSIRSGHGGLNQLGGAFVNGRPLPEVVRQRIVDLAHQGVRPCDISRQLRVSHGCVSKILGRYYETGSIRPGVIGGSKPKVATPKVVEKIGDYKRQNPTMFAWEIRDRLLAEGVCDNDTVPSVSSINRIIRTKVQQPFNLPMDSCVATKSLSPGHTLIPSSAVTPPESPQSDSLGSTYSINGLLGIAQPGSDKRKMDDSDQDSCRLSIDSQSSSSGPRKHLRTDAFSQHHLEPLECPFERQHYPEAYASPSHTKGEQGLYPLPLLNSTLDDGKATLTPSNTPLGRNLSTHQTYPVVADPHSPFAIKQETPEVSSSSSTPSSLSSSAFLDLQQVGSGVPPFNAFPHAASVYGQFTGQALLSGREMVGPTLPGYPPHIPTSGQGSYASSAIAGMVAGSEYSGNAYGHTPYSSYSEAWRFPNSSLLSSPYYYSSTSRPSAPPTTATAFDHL

COc1ccc(CC(=O)Nc2ccc(S(=O)(=O)N3CCN(C)CC3)cc2)cc1
AC50 [1]: > 30 µM (inactive)

NC(=O)[C@H]1CC2(CC(c3cccc(NC(=O)[C@H]4CCC(=O)N4)c3)=NO2)CN1C(=O)c1ccccc1 (stereo partly specified)
IC50 [2]: 19.7 µM (inactive)

COc1ccc(NC(=O)N(C)C[C@H]2Oc3ccc(NS(=O)(=O)c4ccc(F)cc4)cc3C(=O)N([C@@H](C)CO)C[C@H]2C)cc1
AC50 [3]: > 30 µM (inactive)

CCN1CCN(C2=C(N(C)C(C)=O)C(=O)c3ccccc3C2=O)CC1
AC50 [4]: 12.4 µM (active)
AC50 [5]: 6.2 µM (active)

COc1ccc(NC(=O)C(=O)c2cn(CC(=O)N3CCCC3)c3ccccc23)cc1
EC50 [6]: 0.269 µM (inconclusive)
EC50 [7]: 0.323 µM (active)
EC50 (BJ [8]): 2.77 µM (active)
EC50 (cells [9]): 0.515 µM (active)
EC50 [10]: < 0.1 µM (active)
EC50 (BJ [11]): 1.54 µM (active)
EC50 (BJ [12]): 2.34 µM (inconclusive)
EC50 [13]: 2.25 µM (active)
EC50 [14]: 0.681 µM (active)
AC50 [15]: 0.143 µM (active)

CCCCN1C(=O)NC(=O)/C(=C(O)\C=C\c2ccc3c(c2)OCO3)C1=O
EC50 [16]: 11.5 µM (active)
EC50 [17]: 9.12 µM (inconclusive)
EC50 (Transthyretin): > 167 µM (inactive)

COC(=O)C1=C(C)N(Cc2ccccc2C(F)(F)F)C(NCc2ccccc2)=NC1CCc1ccccc1 (stereo unspecified)
IC50 [2]: > 96.6 µM (inactive)

N#Cc1ccc(-c2ccc([C@@H]3[C@@H]4CN(C(=O)C5CCC5)C[C@H]3N4)cc2)cc1
AC50 [18]: 7.74 µM (active)
AC50 [19]: 22.7 µM (active)
AC50 [20]: 5.97 µM (active)
AC50 [21]: 7.86 µM (active)
AC50 [22]: > 52 µM (inactive)
AC50 [23]: 1.19 µM (active)
AC50 [24]: > 100 µM (inactive)
AC50 [25]: 0.825 µM (active)
AC50 [26]: 1.04 µM (active)
AC50 [27]: 1.35 µM (active)

O=C1C(=C2CCc3ccccc32)Cc2ccccc21
EC50 [28]: > 67.4 µM (inactive)
EC50 (cells [29]): > 67.4 µM (inactive)

O=S1(=O)N[C@@H](Cc2ccccc2)COc2cccc(N3CCCC3)c21
AC50 [1]: > 30 µM (inactive)

O=C(C[C@@H]1C[C@H]2c3cc(NS(=O)(=O)c4ccc(F)cc4)ccc3O[C@H]2[C@H](CO)O1)NCc1ccc(-c2ccccc2)cc1
AC50 (Paired box protein Pax-8): 3.44 µM (active)
AC50 [30]: 17.6 µM (active)
AC50 [31]: 10.6 µM (active)
AC50 [3]: > 30 µM (inactive)
AC50 [32]: 9.15 µM (active)
AC50 [33]: 14.6 µM (active)
AC50 [34]: 14.8 µM (active)

COc1ccc(S(=O)(=O)N2CCCCN3[C@@H](CO)[C@@H](c4ccc(C5=CCCCC5)cc4)[C@@H]3C2)cc1
AC50 [25]: 0.972 µM (active)
AC50 [35]: 10.2 µM (active)

O=C1C(NS(=O)(=O)c2ccc(Br)s2)=C(N2CCSCC2)C(=O)c2ccccc21
AC50 [4]: > 70 µM (inactive)
AC50 [5]: > 70 µM (inactive)

N=C(NC(=S)Nc1ccc2c(c1)OCO2)c1ccccc1
EC50 [28]: > 67.5 µM (inactive)
EC50 (cells [29]): > 67.5 µM (inactive)

O=C(N/N=C/c1ccc(Cl)cc1)c1sccc1OCc1ccc(F)cc1
EC50 [6]: 10.2 µM (active)
EC50 [7]: 0.889 µM (active)
EC50 (cells [9]): 1.3 µM (active)
EC50 [36]: < 0.1 µM (active)
EC50 [10]: < 0.1 µM (active)
EC50 [14]: > 3.8 µM (not active)
AC50 [15]: 22.3 µM (active)

COc1ccc(N(CC(O)Cn2c3ccccc3c3ccccc32)S(=O)(=O)c2ccccc2)cc1 (stereo unspecified)
IC50 [37]: > 69.5 µM (inactive)
IC50 [38]: > 69.5 µM (inactive)
IC50 [39]: > 69.5 µM (inactive)

COc1ccccc1S(=O)(=O)N(C)C[C@@H]1OCc2ccccc2-c2c(n(C)c3ccccc23)C(=O)N([C@H](C)CO)C[C@@H]1C
AC50 [23]: 0.561 µM (active)
AC50 [24]: 89.2 µM (active)
AC50 [25]: 0.729 µM (active)
AC50 [26]: 0.423 µM (active)
AC50 [35]: 36.7 µM (active)
AC50 [27]: 0.548 µM (active)
